We go through two compounds from patent publication US20130310439A1, “METHOD OF REDUCING PROTEINS MISFOLDING AND/OR AGGREGATION” (Universidade De Lisboa, priority 2010, published 2013).

The test system of this assay is Q35 animals (C. elegans model of polyQ aggregation). The experiment in a line: polyQ aggregation in Q35 animals treated with cholinergic agonists. It counts as in vivo. The conditions noted are these: one day old (L1s) Q35 animals. The procedure: FIG. 1A: One day old (L1s) Q35 animals were treated with 25 μM levamisole or 1 mM nicotine. The white boxes indicate magnified areas shown below. The photographs are from 4 days old animals.
FIG. 1B are bar graphs showing the number of aggregates in Q35 animals treated with nicotine, levamisole or control animals as a function of age (days).
Additional methods are described in Garcia et al. (2007), Genes and Development 21: 3006-16.

For `c1ccc([C@H]2CN3CCSC3=N2)cc1` [levamisole], the “polyQ aggregation compared to control animals” value (25 μM levamisole) was “increased polyQ aggregation”.
On to `CN1CCCC1c1cccnc1` (centres unmarked) [nicotine], for which, for the setting “1 mM nicotine”, the “polyQ aggregation compared to control animals” value was “increased polyQ aggregation”.
